# Laboratory results published in patent publication US9181258B2, “Substituted 3,4-dihydropyrrolo[1,2-a]pyrazin-1(2H)-ones as protein kinase inhibitors” (NERVIANO MEDICAL SCIENCES S.R.L., priority 2011, dated 2015).
# Structures can show the parent of a compound that is named as a salt.
# Legend:
# human PIM1 = human PIM1 (Homo sapiens (Human), UniProt P11309); assay: Biochemical assay for inhibitors of PIM1 kinase activity (trans-phosphorylation, Dowex technique); conditions: ATP 200 μM, Aktide 25 μM, enzyme 1 nM; read-out: PIM-1 IC50
# Description: Biochemical Assay for Inhibitors of PIM1 Kinase Activity
# The inhibitory activity of putative kinase inhibitors and the potency of selected compounds were determined using a trans-phosphorylation assay.
# Specific peptide or protein substrates were trans-phosphorylated by their specific ser-thr or tyr kinase in the presence of ATP traced with ^33P-γ-ATP, and in the presence of their own optimal buffer and cofactors.
# At the end of the phosphorylation reaction, more than 98% unlabeled ATP and radioactive ATP were captured by an excess of the ion exchange dowex resin; the resin then settled down to the bottom of the reaction plate by gravity. Supernatant was subsequently withdrawn and transferred into a counting plate, then evaluated by β-counting.
# Reagents/Assay Conditions i. Dowex Resin Preparation
# 500 g of wet resin (SIGMA, custom prepared resin DOWEX 1×8 200-400 mesh, 2.5 Kg) were weighed out and diluted to 2 L in 150 mM sodium formate, pH 3.00.
# The resin was allowed to settle down (some hours) and then the supernatant was discarded.
# After three washes as above over a couple of days, the resin was allowed to settle and two volumes (wrt the resin volume) of 150 mM sodium formate buffer were added.
# The pH was then measured and should have been around 3.00.
# The washed resin was stable for more than one week; the stock resin was kept at 4° C. before use.
# The buffer for PIM1 assay was composed of HEPES 50 mM, at pH 7.5, with 10 mM MgCl2, 1 mM DTT, 3 μM NaVO3, and 0.2 mg/mL BSA.
# Full-length human PIM1 was expressed and purified as described in Bullock A N, et al., J. Biol. Chem. 2005, 280, 41675-82.
# 1.7 μM PIM1 was incubated 1 h at 28° C. in the presence of 125 μM ATP.
# ATP concentration: 200 μM; ^33P-γ-ATP: 6 nM; Enzyme concentration: 1 nM Substrate concentration Aktide (Chemical Abstract Service Registry Number 324029-01-8): 25 μM iv. Robotized Dowex Assay
# The test mix consisted of:
# 1) 3× Enzyme mix (done in Kinase Buffer 3×), 5 μL/well
# 2) 3× substrate and ATP mix (done in ddH2O), together with ^33P-γ-ATP, 5 μL/well 3) 3× test compounds (diluted into ddH2O—3% DMSO)—5 μL/well See below for compound dilution and assay scheme […]
# An automated station (Biomek FX, Beckman) was used for serial dilutions, producing 1:3 dilutions in 100% DMSO, from line A1 to A10, for all the compounds in the column.
# Data were analyzed by an internally customized version of the “Assay Explorer” SW package, which provided sigmoidal fitting of the ten-dilution curves for IC50 determination in secondary assay/hit confirmation routines.
# human PIM2 = human PIM2 (Homo sapiens (Human), UniProt Q9P1W9); assay: PIM2 kinase inhibition assay: Dowex technique; format: biochemical; conditions: ATP 4 μM, Aktide 5 μM, enzyme 1.5 nM; read-out: PIM-2 IC50
# Description: Method for PIM2 Kinase Inhibition Assay: Dowex Technique
# The buffer for PIM2 assay was composed of HEPES 50 mM, at pH 7.5, with 1 mM MgCl2, 1 mM DTT, 3 μM Na3VO4, and 0.2 mg/mL BSA.
# Full-length human PIM2 was expressed and purified as described in Fedorov O, et al., PNAS 2007 104, 51, 20523-28. ii. Assay Conditions (Final Concentrations)
# Enzyme concentration=1.5 nM; ATP=4 μM; ^33P-γ-ATP=1 nM
# Aktide substrate (Chemical Abstract Service Registry Number 324029-01-8)=5 μM iii. Robotized Dowex Assay
# See above: same procedure as described for PIM1.
# BaF3-PIM1 cells = assay: In vitro cell proliferation assay (CellTiter-Glo), BaF3-PIM1; format: cell-based; conditions: 72 hours
# Description: (§1) In Vitro Cell Proliferation Assay
# (§2) BaF3-PIM1 and MV-4-11 cells were seeded at 125 cells/well and 1250 cells/well respectively in a 384-well white plates in complete medium and treated with compounds dissolved in 0.1% DMSO, 24 h after seeding.
# (§3) The cells were incubated at 37° C. and 5% CO2 and after 72 hours the plates were processed using CellTiter-Glo assay (Promega) following the manufacturer's instruction.
# (§4) CellTiter-Glo was a homogenous method based on the quantification of the ATP present, an indicator of metabolitically active cells. ATP was quantified using a system based on luciferase and D-luciferin resulting into light generation. The luminescent signal was proportional to the number of cells present in culture.
# (§5) Briefly 25 μl/well reagent solution were added to each wells and after 5 minutes shacking microplates were red by Envision (PerkinElmer) luminometer. The luminescent signal was proportional to the number of cells present in culture.
# (§6) Inhibitory activity was evaluated comparing treated versus control data using Assay Explorer (MDL) program. IC50 was calculated using sigmoidal interpolation curve.
# MV-4-11 cells = assay: In vitro cell proliferation assay (CellTiter-Glo), MV-4-11; format: cell-based; conditions: Homo sapiens, MV4-11, 72 hours
# Description: as §1
# MV-4-11 (biphenotypic B myelomonocytic leukemia) cell line was obtained from ATCC.
# Media for MV-4-11 cell line contained RPMI 1640 or EMEM plus 2 mM Glutamine and 10% Fetal bovine serum.
# as §2, §3, §4, §5, §6
# Sequence of human PIM1 (P11309 whole entry): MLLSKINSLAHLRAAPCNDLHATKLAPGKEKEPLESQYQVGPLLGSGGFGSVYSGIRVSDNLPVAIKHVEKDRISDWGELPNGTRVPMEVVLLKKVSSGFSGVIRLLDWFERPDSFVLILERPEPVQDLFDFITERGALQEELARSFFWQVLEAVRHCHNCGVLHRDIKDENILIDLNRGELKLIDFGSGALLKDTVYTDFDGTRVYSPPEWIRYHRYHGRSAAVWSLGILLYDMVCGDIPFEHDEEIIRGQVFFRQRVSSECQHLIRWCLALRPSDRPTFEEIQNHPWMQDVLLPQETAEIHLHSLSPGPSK
# Sequence of human PIM2 (Q9P1W9 whole entry): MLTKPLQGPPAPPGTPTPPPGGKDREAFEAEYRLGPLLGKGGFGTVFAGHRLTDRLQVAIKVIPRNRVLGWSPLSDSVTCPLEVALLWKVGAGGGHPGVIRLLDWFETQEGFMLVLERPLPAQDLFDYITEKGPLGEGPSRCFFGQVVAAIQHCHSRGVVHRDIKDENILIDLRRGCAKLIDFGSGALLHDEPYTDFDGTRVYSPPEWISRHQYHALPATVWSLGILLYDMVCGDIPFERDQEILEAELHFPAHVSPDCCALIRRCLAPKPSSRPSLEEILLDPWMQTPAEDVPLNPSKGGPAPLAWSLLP
SMILES,IC50 (human PIM1) [nM],IC50 (human PIM2) [nM],IC50 (BaF3-PIM1 cells) [nM],IC50 (MV-4-11 cells) [nM]
"NCCC1CNC(=O)c2cc(-c3cccc(C(F)(F)F)c3)c(-c3ccsc3)n21 (centres unmarked) [Compound 40, 4-(2-aminoethyl)-6-(thiophen-3-yl)-7-[3-(trifluoromethyl)phenyl]-3,4-dihydropyrrolo[1,2-a]pyrazin-1(2H)-one hydrochloride]",43,155,340,5040
"Cc1cccc(-c2c(-c3ccnc(Cl)c3)cc3n2C(CCN)CNC3=O)c1 (centres unmarked) [Compound 45, 4-(2-aminoethyl)-7-(2-chloropyridin-4-yl)-6-(3-methylphenyl)-3,4-dihydropyrrolo[1,2-a]pyrazin-1(2H)-one hydrochloride]",41,102,3960,3170
"NCCC1CNC(=O)c2cc(-c3cc(Cl)ccc3F)c(-c3ccsc3)n21 (centres unmarked) [Compound 55, 4-(2-aminoethyl)-7-(5-chloro-2-fluorophenyl)-6-(thiophen-3-yl)-3,4-dihydropyrrolo[1,2-a]pyrazin-1(2H)-one hydrochloride]",17,77,140,3600
"NCCC1CNC(=O)c2cc(-c3cc(Cl)ccc3F)c(-c3ccccc3)n21 (centres unmarked) [Compound 57, 4-(2-aminoethyl)-7-(5-chloro-2-fluorophenyl)-6-phenyl-3,4-dihydropyrrolo[1,2-a]pyrazin-1(2H)-one hydrochloride]",16,32,239,2600
"Cc1cccc(-c2c(-c3cc(Cl)ccc3F)cc3n2C(CCN)CNC3=O)c1 (centres unmarked) [Compound 59, 4-(2-aminoethyl)-7-(5-chloro-2-fluorophenyl)-6-(3-methylphenyl)-3,4-dihydropyrrolo[1,2-a]pyrazin-1(2H)-one hydrochloride]",40,114,323,4620
"CN(C)Cc1ccc(-c2c(-c3cccc(OC(F)(F)F)c3)cc3n2C(CCCl)CNC3=O)cc1 (centres unmarked) [Compound 70, 4-(2-chloroethyl)-6-{4-[(dimethylamino)methyl]phenyl}-7-[3-(trifluoromethoxy)phenyl]-3,4-dihydropyrrolo[1,2-a]pyrazin-1(2H)-one trifluoroacetate]",16,113,418,1500
"CN1CCN(Cc2ccc(-c3c(-c4cccc(OC(F)(F)F)c4)cc4n3C(CCCl)CNC4=O)cc2)CC1 (centres unmarked) [Compound 71, 4-(2-chloroethyl)-6-{4-[(4-methylpiperazin-1-yl)methyl]phenyl}-7-[3-(trifluoromethoxy)phenyl]-3,4-dihydropyrrolo[1,2-a]pyrazin-1(2H)-one trifluoroacetate]",14,44,273,3140
"CN1CCN(Cc2ccc(-c3c(-c4cccc(OC(F)(F)F)c4)cc4n3C(CCO)CNC4=O)cc2)CC1 (centres unmarked) [Compound 82, 4-(2-hydroxyethyl)-6-{4-[(4-methylpiperazin-1-yl)methyl]phenyl}-7-[3-(trifluoromethoxy)phenyl]-3,4-dihydropyrrolo[1,2-a]pyrazin-1(2H)-one trifluoroacetate]",1,35,486,5960
"CN(C)Cc1ccc(-c2c(-c3cccc(OC(F)(F)F)c3)cc3n2C(CCO)CNC3=O)cc1 (centres unmarked) [Compound 83, 6-{4-[(dimethylamino)methyl]phenyl}-4-(2-hydroxyethyl)-7-[3-(trifluoromethoxy)phenyl]-3,4-dihydropyrrolo[1,2-a]pyrazin-1(2H)-one trifluoroacetate]",4,38,329,2890
"NCC[C@H]1CNC(=O)c2cc(-c3cccc(OC(F)(F)F)c3)c(-c3ccsc3)n21 [Compound 85, (4S)-4-(2-aminoethyl)-6-(thiophen-3-yl)-7-[3-(trifluoromethoxy)phenyl]-3,4-dihydropyrrolo[1,2-a]pyrazin-1(2H)-one hydrochloride]",12,69,85,3660
"NCC[C@H]1CNC(=O)c2cc(-c3cccc(OC(F)(F)F)c3)c(-c3ccccc3)n21 [Compound 87, (4S)-4-(2-aminoethyl)-6-phenyl-7-[3-(trifluoromethoxy)phenyl]-3,4-dihydropyrrolo[1,2-a]pyrazin-1(2H)-one]",9,38,202,3610
"Cc1cccc(-c2c(-c3cccc(OC(F)(F)F)c3)cc3n2[C@@H](CCN)CNC3=O)c1 [Compound 92, (4S)-4-(2-aminoethyl)-6-(3-methylphenyl)-7-[3-(trifluoromethoxy)phenyl]-3,4-dihydropyrrolo[1,2-a]pyrazin-1(2H)-one hydrochloride]",5,15,147,2200
"NCC[C@H]1CNC(=O)c2cc(-c3cccc(OC(F)(F)F)c3)c(-c3ccc(F)cc3)n21 [Compound 94, (4S)-4-(2-aminoethyl)-6-(4-fluorophenyl)-7-[3-(trifluoromethoxy)phenyl]-3,4-dihydropyrrolo[1,2-a]pyrazin-1(2H)-one hydrochloride]",20,27,428,5420
"CC(=O)c1ccc(-c2c(-c3cccc(OC(F)(F)F)c3)cc3n2[C@@H](CCN)CNC3=O)cc1 [Compound 95, (4S)-6-(4-acetylphenyl)-4-(2-aminoethyl)-7-[3-(trifluoromethoxy)phenyl]-3,4-dihydropyrrolo[1,2-a]pyrazin-1(2H)-one hydrochloride]",6,17,573,1260
"NCC[C@H]1CNC(=O)c2cc(-c3cccc(OC(F)(F)F)c3)c(-c3ccc(C=O)cc3)n21 [Compound 97, 4-{(4S)-4-(2-aminoethyl)-1-oxo-7-[3-(trifluoromethoxy)phenyl]-1,2,3,4-tetrahydropyrrolo[1,2-a]pyrazin-6-yl}benzaldehyde hydrochloride]",7,22,1500,2100
"NCC[C@H]1CNC(=O)c2cc(-c3cccc(OC(F)(F)F)c3)c(-c3ccc(CN4CCOCC4)cc3)n21 [Compound 99, (4S)-4-(2-aminoethyl)-6-[4-(morpholin-4-ylmethyl)phenyl]-7-[3-(trifluoromethoxy)phenyl]-3,4-dihydropyrrolo[1,2-a]pyrazin-1(2H)-one hydrochloride]",2,7,410,672
"CN1CCN(Cc2ccc(-c3c(-c4cccc(OC(F)(F)F)c4)cc4n3[C@@H](CCN)CNC4=O)cc2)CC1 [Compound 100, (4S)-4-(2-aminoethyl)-6-{4-[(4-methylpiperazin-1-yl)methyl]phenyl}-7-[3-(trifluoromethoxy)phenyl]-3,4-dihydropyrrolo[1,2-a]pyrazin-1(2H)-one hydrochloride]",1,2,3100,616
